From patent US20260132165A1, “MODIFIED NUCLEOSIDE ANALOGUE AND USE THEREOF, AND NUCLEOSIDE ANALOGUE-CONTAINING DOUBLE-STRANDED OLIGONUCLEOTIDE AND USE THEREOF” (RIGERNA THERAPEUTICS (BEIJING) CO., LTD., priority 2023, published 2026)
Strand notation (5' to 3'): a small letter for the sugar, then the base; units joined by * are phosphorothioate-linked, units joined directly phosphodiester-linked; [ ] holds rarer units or linkages, { } end groups; capitals alone tell only the bases. [Uhd] = commercial lipid-conjugated uridine analogue Uhd (C16), from Hongene, reference; {VP} = (thio)vinylphosphonate on the antisense 5' nucleotide, as listed; e = 2'-O-(2-methoxyethyl) (MOE); m = 2'-O-methyl; f = 2'-fluoro

Legend:
[1] = tested on: target gene SOD1; experiment: Test Example 4: lipid conjugated siRNA sequences with different carbon chain lengths, SOD1 in mouse brain, lateral ventricle administration; assay type: in vivo, C57BL/6j mice; set-up: Right hemisphere Mean value of inhibition rate / Left hemisphere Mean value of inhibition rate: unit not given here; conditions: D5; for Left hemisphere Mean value of inhibition rate: left hemisphere (non-administration side); for Left hemisphere Mean value of inhibition rate / Right hemisphere Mean value of inhibition rate: lateral ventricle; for Right hemisphere Mean value of inhibition rate: right hemisphere (administration side)
Experimental: 6-8 Week-old C57BL/6j mice were randomly grouped by body weight. Mice in each group were administered with siRNA by lateral ventricle administration, with an administration dose per mouse depending on a specific test. Taking Bregma in mouse brain as point 0 (origin), coordinates of right ventricle were found using the cerebral stereotaxic apparatus and position was marked on surface of skull (position of lateral ventricle was AP (anteroposterior, bregma anterior and posterior): −0.58 mm, ML (mediolateral, left and right of middle raphe): −1.2 mm, DV (dorsoventral, up and down cerebral dura mater plane): −2.2 mm). A dental electric drill was used to drill in the skull above a position of interest, and then medicament was injected into the lateral ventricle by a micro-dosing pump, wherein a total injection volume was 5 μL, and injection duration was 10 min. Needle was retained for 5 min after completion of injection, and then slowly withdrawn. Afterwards, needle hole was sealed with biomedical glue, and then head skin was adhered. After animals woke up, the animals were returned back to animal house and further fed. PBS control group was administered with the same volume of siRNA-free PBS solution. The day of administration was recorded as 0 day (D0), and the mice were sacrificed at observation point after the administration. Different parts of brain region were respectively taken and stored in the RNAlater.
(§1) RNA extraction: the above tissue samples were taken out from the RNAlater, and smashed for 60 s in Tissuelyser type II full-automatic tissue homogenizer, and total RNAs of various tissue samples were extracted using the full-automatic nucleic acid extraction instrument and the nucleic acid extraction kit from Zhejiang Hanwei Science and Technology Co. Ltd. according to methods described in instructions.
(§2) Reverse transcription reaction: 1 μg of the extracted total RNAs of the tissue samples were taken, and configured into 20 μL of reverse transcription system according to a method described in kit instructions by using a reverse transcription kit (Reverse Transcription System, A3500) from Promega Corporation and selecting Oligo (dT)15 reverse transcription primers, and the reverse transcription reaction was completed. After the reaction was ended, 80 μL of RNase-Free water was added into the reverse transcription system to provide cDNA solution for Real-time PCR detection.
(§3) Real-time PCR detection: 20 μL of Real-time PCR reaction system per PCR detection well was configured according to a method described in kit instructions using SYBR™ Select Master Mix (Catalog number: 4472908) reagent from ABI company. Each detection system contained 5 μL of cDNA template obtained from the above reverse transcription reaction, 10 μL of SYBR™ Select Master Mix, 0.5 μL of 10 μM upstream primers, 0.5 μL of 10 μM downstream primers, and 4 μL of RNase-Free H2O. The configured reaction system was subjected to Real-time PCR amplification on ABI StepOnePlus PCR instrument by a three-step method, wherein an amplification procedure was pre-denaturation at 95° C. for 10 min, then denaturation at 95° C. for 30 s, annealing at 60° C. for 30 s, and extension at 72° C. for 30 s; and processes of denaturation, annealing, and extension were repeated for 40 cycles. Gene expression differences were calculated by the ΔΔCt method after completion of the procedure.
In the real-time fluorescence quantitative PCR method, relative quantitative calculation of remaining expression level and inhibition rate of gene mRNA of interest in various test groups was performed by the ΔΔCt method, and the calculation method is as follows: […]

[2] = tested on: target gene SOD1; experiment: Test Example 9: inhibitory activity of lipid conjugated siRNA sequences on SOD1 in mouse muscle tissues; assay type: in vivo, C57BL/6j mice; conditions: D14; for Diaphragm % Mean value of inhibition rate / Heart % Mean value of inhibition rate / Left quadriceps muscle % Mean value of inhibition rate: tail vein injection 5 mg/kg; for Left quadriceps muscle % Mean value of inhibition rate: left hind leg quadriceps muscle
Experimental: as §1, §2, §3
(§4) In the real-time fluorescence quantitative PCR method, relative quantitative calculation of remaining expression level and inhibition rate of gene mRNA of interest in various test groups was performed by the ΔΔCt method, and the calculation method is as follows:
The present test example evaluated, by an evaluation method for inhibitory activity on a target gene in mice, the inhibitory activity of siRNA sequence RZ899090 with the sense strand with the NM073 conjugation at Position 4, siRNA sequence RZ899091 with the sense strand with the NM074 conjugation at Position 4, siRNA sequence RZ899078 with the sense strand with the NM202 conjugation at Position 6 and siRNA reference sequence RZ899093 with the sense strand with the Uhd conjugation at Position 4, siRNA reference sequence RZ899076 with the sense strand with the NM200 conjugation at Position 4 on the target gene SOD1 of interest in muscle tissues in different parts of mice.
6-8 Week-old C57BL/6j mice were randomly grouped by body weight, 5 per group, 6 groups in total. Mice in each group were dosed with the above siRNA conjugates by tail vein injection, with an administration dose of 5 mg/kg per mouse, and an administration volume of 150 μL. PBS control group was administered with the same volume of siRNA conjugate-free PBS solution. The day of administration was recorded as D0, and 5 mice in each group were sacrificed on D14 after administration. Tissues such as left hind leg quadriceps muscle, diaphragm, and heart tissues were respectively taken and stored in the RNAlater. RNA extraction, reverse transcription, and real-time fluorescence quantitative detection were performed on various tissues according to the above method, and gene expression differences were calculated by the above ΔΔCt method.

[3] = tested on: target gene SOD1; experiment: Test Example 6: inhibitory activity of NM073, NM074 conjugated siRNA sequences on SOD1 by intrathecal administration to rats; assay type: in vivo, SD rats; conditions: D28; for Cerebellum % Mean value of inhibition rate / Cortex % Mean value of inhibition rate / Hippocampus % Mean value of inhibition rate / Cervical segment % Mean value of inhibition rate / Lumbar segment % Mean value of inhibition rate / Thoracic segment % Mean value of inhibition rate: intrathecal, 900 μg per rat; for Cortex % Mean value of inhibition rate: cerebral cortex; for Cervical segment % Mean value of inhibition rate: spinal cord cervical segment; for Lumbar segment % Mean value of inhibition rate: spinal cord lumbar segment; for Thoracic segment % Mean value of inhibition rate: spinal cord thoracic segment
Experimental: 6-8 Week-old SD rats were randomly grouped by body weight. Rats in each group were administered with siRNA by intrathecal administration, with an administration dose of 900 μg per rat. Injection was administered from rat spinal cord L5-L6, with an administration volume of 40 μL. Needle was retained for 2 min after completion of injection, and then slowly withdrawn. PBS control group was administered with the same volume of siRNA conjugate-free PBS solution. The day of administration was recorded as 0 day (D0), and the rats were sacrificed at observation point after administration. Different segments of spinal cord and different regions of brain were respectively taken and stored in the RNAlater.
as §1, §2, §3, §4
The present test example evaluated, by an evaluation method for inhibitory activity on a target gene by intrathecal administration to rats, the inhibitory activity of siRNA sequence RZ899090 with the NM073 conjugation at Position 4, siRNA sequence RZ899091 with the NM074 conjugation at Position 4 and siRNA control sequence RZ899093 with the Uhd conjugation on the target gene SOD1 of interest in spinal cord and brain of rats. The above conjugation vectors were different in that NM073 was C18 aliphatic chain and NM074 was C20 aliphatic chain.
6-8 Week-old SD rats were randomly grouped by body weight, 5 per group, 4 groups in total. Rats in each group were dosed with the above siRNA conjugates by intrathecal administration, with an administration dose of 900 μg per rat, and an administration volume of 40 μL. PBS control group was administered with the same volume of siRNA conjugate-free PBS solution. The day of administration was recorded as D0, and the rats were sacrificed on D28 after administration. […]

Row | Substance | inhibitory activity compared with the vector-free siRNA sequence RX599002 ([1]; left and right hemisphere, lateral ventricle 150 μg per mouse) | Left hemisphere Mean value of inhibition rate ([1]; 150 μg per mouse) | activity compared with Uhd conjugated reference sequence RZ899093 and NM200 (C22) conjugated reference sequence RZ899076 ([1]; right hemisphere (administration side) and left hemisphere (non-administration side), 150 μg per mouse) | Right hemisphere Mean value of inhibition rate ([1]; 150 μg per mouse) | Diaphragm % Mean value of inhibition rate [2] | inhibitory activity compared with the NM200 conjugated reference sequence RZ899076 ([2]; heart tissues, tail vein 5 mg/kg) | Heart % Mean value of inhibition rate [2] | Left quadriceps muscle % Mean value of inhibition rate [2] | inhibitory action on the left quadriceps muscle and diaphragm ([2]; left quadriceps muscle and diaphragm, tail vein 5 mg/kg) | Cerebellum % Mean value of inhibition rate [3] | Cortex % Mean value of inhibition rate [3] | Hippocampus % Mean value of inhibition rate [3] | level of inhibition on the target gene compared with the Uhd control conjugate (RZ899093) ([3]; intrathecal 900 μg per rat) | Cervical segment % Mean value of inhibition rate [3] | Lumbar segment % Mean value of inhibition rate [3] | Thoracic segment % Mean value of inhibition rate [3]
1 | RZ899091: siRNA sequence with the sense strand with the NM074 (C20) conjugation at Position 4; SEQ ID NO: 16 / 23 (sense UUUNAAUCCUCACUCUAAA; antisense UUUAGAGUGAGGAUUAAAAUG; NM074 (C20) conjugate at sense position 4; modified_base 1..2 OTHER; 2'-methoxy and 5'-thiophosphate modified nucleotides; modified_base 3 OTHER; 2'-methoxy modified nucleotide; modified_base 4 OTHER; n is the synthetic nucleotide analog NM074 as described in the disclosure.; modified_base 5..6 OTHER; 2'-methoxy modified nucleotides; modified_base 7..10 OTHER; 2'-fluoro modified nucleotides; modified_base 11..19 OTHER; 2'-methoxy modified ; modified_base 1 OTHER; 2'-methoxy and 5'-thiovinylphosphonate modified nucleotide; modified_base 2 OTHER; 2'-fluoro and 5'-thiophosphate modified …) | superior inhibitory activity | 70.41 | substantially comparable or superior activity | 82.32 | 39.22% | superior inhibitory activity | 76.73% | 33.02% | certain inhibitory action | 73.86% | 28.78% | 70.69% | superior level of inhibition on the target gene in the spinal cord segment, cerebellum, and hippocampus | 92.15% | 95.17% | 98.15%
2 | RZ899093: siRNA reference sequence with the sense strand with the Uhd (C16) conjugation at Position 4; SEQ ID NO: 13 / 23 (sense mU*mU*mU[Uhd]mAmAfUfCfCfUmCmAmCmUmCmUmAmAmA; antisense {VP}-mU*fU*mUmAmGfAmGmUmGmAmGfGmAfUeUfAmAmAmA*mU*mG) [reference compound] |  | 70.23 |  | 80.47 | 64.76% |  | 51.52% | 56.55% |  | 55.89% | 36.29% | 52.87% |  | 69.68% | 95.31% | 94.90%
